The results in this text go back to PubChem BioAssay AID2024 (Southern Research Specialized Biocontainment Screening …, 2009).

Active and inactive are the calls of the source. No rule for the calls is given here.

The test system of one assay is virus-infected cells, titer reduction, log titer change. Briefly: virus titer reduction by selected antiviral hits, confirmation, cell-based, 55 compounds from dose-response study (AID 2024). To be noted: at 10 µM (top of the series).
Consider `Cn1c(=O)[nH]c(=O)c2c1nc(N1CCN(C(c3ccccc3)c3ccccc3)CC1)n2CCO`, for which the log titer change, negative = reduction is -1.17. The same measure, in the same setting: next, `CCN1CCN(CCCNC(=O)c2cc3c(s2)-c2ccccc2OC3)CC1`: -0.5 (inactive). Same read-out and setting: as for `CC1=CC(C)(C)N2C(=O)C3(NCCc4c3[nH]c3ccccc43)c3cc(C)cc1c32` (stereo not drawn), the figure is -1.27; as for `CCN(CC)CCNC(=O)c1sc2ncn(CC(=O)Nc3ccc(C)c(Cl)c3)c(=O)c2c1C`, 0.5 (inactive).

Still in this assay, the particulars now being: at 20 µM (top of the series).
For the compound `CCN(CC)CCn1c(=N)n(CC(=O)c2ccc(Br)s2)c2ccccc21`, the log titer change, negative = reduction was 0.31 (inactive).

`Cc1c(NC(=O)COC(=O)c2cc(-c3ccc(-c4ccccc4)cc3)nc3ccccc23)c(=O)n(-c2ccccc2)n1C`: the log titer change, negative = reduction was 0.31 (inactive).

Regarding `COc1ccc(C2c3c(ncn(CCN4CCOCC4)c3=N)Oc3ccc4ccccc4c32)cc1` (stereo not drawn), the log titer change, negative = reduction is 0.93 (inactive). On the same count and under the same terms, next, `Cc1ccc2[nH]c(=O)c(CN(CCCN(C)C)C(=O)Nc3ccc(Cl)cc3)cc2c1`: -2.15. Turning to `COc1ccc(C2c3ccc4ccccc4c3Oc3ncn(CCO)c(=N)c32)cc1` (stereo not drawn), the log titer change, negative = reduction is 0.39 (inactive). For `CN(C)CCCNC(=O)c1cc2sc3ccccc3c2s1`, the log titer change, negative = reduction was -0.17 (inactive). The same measure, in the same setting: next, `CCN(CC)CCCNC(=O)c1cc2c(-c3cccc(OC)c3)nn(C)c2s1`: 0.93 (inactive); `Brc1ccc2c(c1)CN1CCCC1=N2`: -1.9.

On to `CCN(CC)CCCNC(=S)N1CCN(c2nc(-c3ccccc3)cs2)CC1`, for which the log titer change, negative = reduction was -0.57 (inactive). Same read-out and setting: next, `CC[C@@H](C(=O)[C@@H](C)[C@@H](O)[C@H](C)CCc1ccc(C)c(O)c1C(=O)O)[C@H]1O[C@](CC)([C@H]2CC[C@](O)(CC)[C@H](C)O2)C[C@@H]1C`: 0.14 (inactive); `O=C(CN1C(=O)/C(=C/c2ccc(C(F)(F)F)cc2)Sc2ccccc21)NCCCN1CCOCC1`: -0.16 (inactive); `NCCCNc1nc(N)c([N+](=O)[O-])c(NC2CCCCC2)n1`: -4.74. For `N=C1C(c2nc(-c3ccc(Cl)cc3)cs2)=C(O)CN1CCCN1CCOCC1`, the log titer change, negative = reduction is 1.48 (inactive). For `COc1cc2c(OC(C)=O)c3c(c(-c4ccc5c(c4)OCO5)c2cc1OC)C(=O)OC3`, the log titer change, negative = reduction was -2. Same read-out and setting: as for `Cc1ccc2oc(=O)c3cc(C(=O)NCCCN4CC(C)CC(C)C4)sc3c2c1` (stereo not drawn), the figure is 0.31 (inactive); as for `COc1cc(CNC(C)(C)CO)cc(Br)c1OCc1ccc(Cl)cc1`, 0.27 (inactive); as for `Cc1ccc(C)c(N2CCN(CCCNC(=O)CCC(=O)N3CCOc4ccc(Cl)cc43)CC2)c1`, -0.03 (inactive). As for `O=C(CSc1nc2ccccc2c(=O)n1-c1ccc(F)cc1)Nc1ccc2c(c1)CCC2`, the log titer change, negative = reduction is -0.69 (inactive). Consider `Cc1cccn2c(=O)c3cc(C(=O)NCCN4CCOCC4)c(=N)n(Cc4ccc(F)cc4)c3nc12`, for which the log titer change, negative = reduction was -0.03 (inactive). Still for that read-out and setting: next, `CC1CCCN(CCCNC(=O)c2cc3c(s2)-c2ccccc2OC3)C1` (stereo not drawn): -0.41 (inactive). On to `CC(C)c1oc(=O)cc2c1[C@@H](O)[C@H]1OC(=O)[C@@]3(C)CC[C@@H](O)[C@@]2(C)C13` (stereo partly drawn), for which the log titer change, negative = reduction is -1.17.

Consider `CCN1CCN(CCCNC(=O)C2CCCN(c3nc4c(C)cc(C)cc4s3)C2)CC1` (stereo not drawn), for which the log titer change, negative = reduction is -0.36 (inactive). On to `CC1CCN(CCCNC(=O)c2cc3c(s2)-c2ccccc2OC3)CC1`, for which the log titer change, negative = reduction was 0.43 (inactive). The same measure, in the same setting: next, `CN1CCN(CCNC(=O)c2ccc3nc(-c4ccc(F)cc4)c(-c4ccc(F)cc4)nc3c2)CC1`: -0.03 (inactive); `Cc1ccc2cc(C#N)c(N3CCCN(C(=S)NCCCN(C)C)CC3)nc2c1`: -0.02 (inactive); `O=C(CSc1nc2ccccc2c(=O)n1-c1ccc(F)cc1F)Nc1ccc2c(c1)CCC2`: -2.18. On the same count and under the same terms, next, `CC(C)c1oc(=O)cc2c1[C@@H](O)[C@H]1OC(=O)[C@@]3(C)C[C@@H](O)[C@@H](O)[C@@]2(C)C13` (stereo partly drawn): -0.25 (inactive). The same measure, in the same setting: next, `CN(C)CCCN1c2ccc([N+](=O)[O-])cc2CCc2cc([N+](=O)[O-])ccc21`: 0 (inactive); `CCN1CCN(c2ncc(C(=O)Nc3cc(Cl)c(OC)cc3OC)c3ccccc23)CC1`: -0.17 (inactive). Turning to `CCCN1CCN(CCCNC(=O)c2cc3c(s2)-c2ccccc2OC3)CC1`, the log titer change, negative = reduction was 0 (inactive).

On to `CC1CCCC(C)N1CCCNC(=O)c1cc2c(s1)-c1ccccc1OC2` (stereo not drawn), for which the log titer change, negative = reduction was 0.43 (inactive). Take `CN(C)CCCNC(=S)N1CCN(c2nc(-c3ccccc3)cs2)CC1`: the log titer change, negative = reduction is -0.02 (inactive). For the compound `COc1ccc(-c2csc(N(CCCN(C)C)C(=O)c3ccccc3Cl)n2)cc1`, the log titer change, negative = reduction is -1.5.

For `CN(CCCNC(=O)c1cc2c(Cl)nc3ccccc3c2s1)Cc1ccccc1`, the log titer change, negative = reduction is 0.43 (inactive). The same measure, in the same setting: next, `COc1ccc(C2c3ccc4ccccc4c3Oc3ncn(CCCO)c(=N)c32)cc1OC` (stereo not drawn): 0.54 (inactive).

For the compound `CCN1CCN(CCCNC(=O)c2ccc3c(Cl)c4c(nc3c2)CCCC4)CC1`, the log titer change, negative = reduction was -0.02 (inactive). As to `CCN(CC)CCCC(C)NC(=O)c1c(NC(=O)c2ccccc2)sc2c1CCCC2` (stereo not drawn), the log titer change, negative = reduction was 0.55 (inactive). On to `CCN(CC)CCNC(=O)C1CCN(S(=O)(=O)c2c(C)noc2/C=C/c2ccccc2F)CC1`, for which the log titer change, negative = reduction was 0.27 (inactive).

For the compound `Cc1c(Cc2ccccc2)c(NCCN(C)C)n2c(nc3ccccc32)c1C#N`, the log titer change, negative = reduction was 0.43 (inactive). Still for that read-out and setting: next, `CCOc1ccc(NC(=O)c2c(NC(=O)CN3CCN(C)CC3)sc3c2CCC3)cc1`: 0 (inactive).

For the compound `CCCN(CCC)CCCNC(=S)Nc1ccc2nc(N3CCCC3)cc(C)c2c1`, the log titer change, negative = reduction is -0.33 (inactive). On to `CN(C)CCCN(C(=O)c1ccc2c(c1)OCCO2)c1nc2ccc(Cl)cc2s1`, for which the log titer change, negative = reduction was -0.33 (inactive). Turning to `CN1CCN(CCCN2c3ccccc3Sc3ccc(Cl)cc32)CC1`, the log titer change, negative = reduction was -0.64 (inactive).

As for `CCOc1ccc(/C=C/c2nc(C#N)c(NCCCN(C)C)o2)cc1`, the log titer change, negative = reduction was 0.31 (inactive). Turning to `CCOC(=O)c1c(CN2CCN(CCO)CC2)n(-c2ccccc2)c2cc(Br)c(O)cc12`, the log titer change, negative = reduction was -0.07 (inactive). On to `O=C(Oc1ccccc1)c1ccc(-n2cnnn2)cc1`, for which the log titer change, negative = reduction is -0.73 (inactive). On the same count and under the same terms, next, `Cc1ccc(-c2cc(C(=O)NCCCN3CCCC3)c3ccccc3n2)cc1C`: 0.19 (inactive). Take `Cc1cc(C)cc(SCc2noc(C(=O)NCCN(C)C)c2C(=O)NCCN(C)C)c1`: the log titer change, negative = reduction is -0.17 (inactive). As to `CN(C)CC(O)COc1ccc(C(C)(C)c2ccc(OCC(O)CN(C)C)cc2)cc1` (stereo not drawn), the log titer change, negative = reduction is -1.17.
